From ChEMBL document CHEMBL3864148, “Synthesis of linear and angular aryl-morpholino-naphth-oxazines, their DNA-PK, PI3K, PDE3A and antiplatelet activity” (Bioorg Med Chem Lett, 2016)

Columns and labels:
DNA-PK/Ku70/Ku85 = DNA-PK/Ku70/Ku85 (Homo sapiens, UniProt P12956+P13010+P78527); test: Inhibition of human DNA-PK/Ku70/Ku85 using EPPLSQEAFADLWKK as substrate by HTRF assay relative to control
[1] = biological target: T1, Phosphatidylinositol 4,5-bisphosphate 3-kinase catalytic subunit gamma isoform (Homo sapiens, UniProt P48736); test: Inhibition of p110gamma (unknown origin) assessed as decrease in ATP consumption after 60 mins by Kinase-Glo assay
Target sequence in this assay (P48736 whole entry, canonical isoform): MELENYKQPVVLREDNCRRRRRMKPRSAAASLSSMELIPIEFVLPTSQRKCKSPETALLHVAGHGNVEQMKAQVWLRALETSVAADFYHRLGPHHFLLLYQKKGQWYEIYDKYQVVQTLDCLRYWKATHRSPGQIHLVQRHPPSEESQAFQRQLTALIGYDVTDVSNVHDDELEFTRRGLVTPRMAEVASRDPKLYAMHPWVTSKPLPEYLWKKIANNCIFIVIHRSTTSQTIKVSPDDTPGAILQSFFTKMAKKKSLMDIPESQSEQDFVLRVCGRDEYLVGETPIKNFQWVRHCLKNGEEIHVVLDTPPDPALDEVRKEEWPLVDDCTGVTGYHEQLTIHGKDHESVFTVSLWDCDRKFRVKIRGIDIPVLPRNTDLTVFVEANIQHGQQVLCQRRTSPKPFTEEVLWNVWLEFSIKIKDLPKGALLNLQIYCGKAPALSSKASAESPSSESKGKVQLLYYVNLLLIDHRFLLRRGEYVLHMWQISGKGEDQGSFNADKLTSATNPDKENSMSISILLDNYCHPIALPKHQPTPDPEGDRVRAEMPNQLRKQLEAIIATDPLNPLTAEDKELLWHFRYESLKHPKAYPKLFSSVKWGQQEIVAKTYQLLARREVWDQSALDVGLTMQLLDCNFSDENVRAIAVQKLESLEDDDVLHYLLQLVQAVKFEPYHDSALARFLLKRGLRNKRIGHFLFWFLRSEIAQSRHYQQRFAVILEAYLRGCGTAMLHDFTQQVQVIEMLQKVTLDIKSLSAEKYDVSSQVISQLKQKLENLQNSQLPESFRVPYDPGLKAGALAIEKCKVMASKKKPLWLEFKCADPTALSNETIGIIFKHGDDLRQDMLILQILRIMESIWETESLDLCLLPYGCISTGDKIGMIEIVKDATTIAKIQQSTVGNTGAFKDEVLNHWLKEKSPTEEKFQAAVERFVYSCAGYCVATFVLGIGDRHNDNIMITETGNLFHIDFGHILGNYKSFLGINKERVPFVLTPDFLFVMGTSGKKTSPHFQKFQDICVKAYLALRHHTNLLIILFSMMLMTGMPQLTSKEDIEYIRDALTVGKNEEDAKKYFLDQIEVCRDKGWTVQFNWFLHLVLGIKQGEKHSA

[2] = biological target: cGMP-inhibited 3',5'-cyclic phosphodiesterase 3A (Homo sapiens) (UniProt Q14432); test: Inhibition of PDE3A (unknown origin) at 10 uM relative to control
[3] = biological target: T2, Phosphatidylinositol 4,5-bisphosphate 3-kinase catalytic subunit beta isoform (Homo sapiens, UniProt P42338); test: Inhibition of p110beta (unknown origin) assessed as decrease in ATP consumption after 60 mins by Kinase-Glo assay
Target sequence in this assay (P42338 whole entry, canonical isoform): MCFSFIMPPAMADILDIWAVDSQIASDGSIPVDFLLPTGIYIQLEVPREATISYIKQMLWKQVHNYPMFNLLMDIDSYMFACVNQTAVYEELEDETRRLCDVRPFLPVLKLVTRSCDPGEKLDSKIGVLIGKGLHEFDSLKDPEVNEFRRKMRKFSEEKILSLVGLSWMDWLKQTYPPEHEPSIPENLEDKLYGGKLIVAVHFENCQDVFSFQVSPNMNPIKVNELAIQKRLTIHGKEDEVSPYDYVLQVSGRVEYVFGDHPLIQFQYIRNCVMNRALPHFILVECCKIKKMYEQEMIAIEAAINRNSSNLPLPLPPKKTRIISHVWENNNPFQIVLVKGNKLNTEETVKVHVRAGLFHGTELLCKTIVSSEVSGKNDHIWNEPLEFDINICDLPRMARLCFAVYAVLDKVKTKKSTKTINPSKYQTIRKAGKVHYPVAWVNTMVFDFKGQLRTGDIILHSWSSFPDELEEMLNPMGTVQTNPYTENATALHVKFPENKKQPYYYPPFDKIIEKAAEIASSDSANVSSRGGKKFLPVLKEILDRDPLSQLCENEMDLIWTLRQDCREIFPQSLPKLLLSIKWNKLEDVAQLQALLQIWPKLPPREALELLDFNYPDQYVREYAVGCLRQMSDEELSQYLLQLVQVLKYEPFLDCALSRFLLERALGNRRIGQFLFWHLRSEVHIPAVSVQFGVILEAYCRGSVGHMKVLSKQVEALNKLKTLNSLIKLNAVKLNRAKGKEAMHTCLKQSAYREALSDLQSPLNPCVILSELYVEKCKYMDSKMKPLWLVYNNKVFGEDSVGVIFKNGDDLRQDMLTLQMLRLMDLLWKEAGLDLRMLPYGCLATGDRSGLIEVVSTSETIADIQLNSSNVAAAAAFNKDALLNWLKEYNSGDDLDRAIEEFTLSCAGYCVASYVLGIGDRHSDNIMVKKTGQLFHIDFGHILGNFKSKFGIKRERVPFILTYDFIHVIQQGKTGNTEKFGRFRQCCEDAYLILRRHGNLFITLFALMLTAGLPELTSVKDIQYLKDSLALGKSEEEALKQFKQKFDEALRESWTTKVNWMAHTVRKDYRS

[4] = biological target: T3, Phosphatidylinositol 4,5-bisphosphate 3-kinase catalytic subunit delta isoform (Homo sapiens, UniProt O00329); test: Inhibition of p110delta (unknown origin) assessed as decrease in ATP consumption after 60 mins by Kinase-Glo assay
T3 sequence (O00329 whole entry): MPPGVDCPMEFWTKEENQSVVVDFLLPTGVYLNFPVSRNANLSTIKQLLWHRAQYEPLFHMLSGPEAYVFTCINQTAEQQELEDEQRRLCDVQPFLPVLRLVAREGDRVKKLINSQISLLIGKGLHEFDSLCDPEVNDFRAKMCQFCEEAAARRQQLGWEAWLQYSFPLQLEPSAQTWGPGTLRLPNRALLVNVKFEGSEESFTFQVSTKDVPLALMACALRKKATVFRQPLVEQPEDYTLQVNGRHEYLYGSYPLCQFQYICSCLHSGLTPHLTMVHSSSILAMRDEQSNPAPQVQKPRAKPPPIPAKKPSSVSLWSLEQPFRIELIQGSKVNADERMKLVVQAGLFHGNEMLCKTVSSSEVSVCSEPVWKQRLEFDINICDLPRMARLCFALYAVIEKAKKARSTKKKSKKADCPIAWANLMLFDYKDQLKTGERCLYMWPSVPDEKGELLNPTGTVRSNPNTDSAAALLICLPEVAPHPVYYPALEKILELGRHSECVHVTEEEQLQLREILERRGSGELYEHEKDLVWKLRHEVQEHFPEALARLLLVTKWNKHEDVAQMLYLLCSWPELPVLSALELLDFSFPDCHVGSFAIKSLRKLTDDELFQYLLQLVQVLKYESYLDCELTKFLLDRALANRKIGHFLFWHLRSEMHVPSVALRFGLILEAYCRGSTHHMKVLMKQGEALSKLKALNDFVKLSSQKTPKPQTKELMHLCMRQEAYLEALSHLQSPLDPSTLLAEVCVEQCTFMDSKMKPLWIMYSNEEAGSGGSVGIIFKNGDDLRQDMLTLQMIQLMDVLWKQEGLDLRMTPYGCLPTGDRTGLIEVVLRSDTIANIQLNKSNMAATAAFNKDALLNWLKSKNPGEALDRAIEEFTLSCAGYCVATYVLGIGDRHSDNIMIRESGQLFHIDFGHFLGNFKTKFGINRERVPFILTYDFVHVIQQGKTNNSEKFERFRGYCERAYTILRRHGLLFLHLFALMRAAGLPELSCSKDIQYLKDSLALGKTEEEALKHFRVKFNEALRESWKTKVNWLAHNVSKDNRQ

[5] = biological target: T4, Phosphatidylinositol 4,5-bisphosphate 3-kinase catalytic subunit alpha isoform (Homo sapiens, UniProt P42336); test: Inhibition of p110alpha (unknown origin) assessed as decrease in ATP consumption after 60 mins by Kinase-Glo assay
[6] = Antiplatelet activity in human platelet rich plasma assessed as inhibition of collagen-induced platelet aggregation preincubated for 2 mins followed by collagen addition by two-channel platelet aggregometer; assay type: functional
[7] = biological target: DNA-PK/Ku70/Ku85 (Homo sapiens) (UniProt P78527+P12956+P13010); test: Inhibition of human DNA-PK/Ku70/Ku85 at 10 uM using EPPLSQEAFADLWKK as substrate by HTRF assay relative to control
[8] = biological target: T5, Phosphatidylinositol 4,5-bisphosphate 3-kinase catalytic subunit delta isoform (Homo sapiens) (UniProt O00329); test: Inhibition of p110delta (unknown origin) assessed as decrease in ATP consumption at 10 uM after 60 mins by Kinase-Glo assay relative to control
T5 sequence (whole entry): T3 sequence (O00329 whole entry)

[9] = biological target: T2, Phosphatidylinositol 4,5-bisphosphate 3-kinase catalytic subunit beta isoform; test: Inhibition of p110beta (unknown origin) assessed as decrease in ATP consumption at 10 uM after 60 mins by Kinase-Glo assay relative to control
Target sequence in this assay (P42338 whole entry, looked up, canonical isoform): as the sequence (P42338 whole entry, canonical isoform) above

[10] = biological target: T4, Phosphatidylinositol 4,5-bisphosphate 3-kinase catalytic subunit alpha isoform; test: Inhibition of p110alpha (unknown origin) assessed as decrease in ATP consumption at 10 uM after 60 mins by Kinase-Glo assay relative to control
[11] = biological target: T1, Phosphatidylinositol 4,5-bisphosphate 3-kinase catalytic subunit gamma isoform; test: Inhibition of p110gamma (unknown origin) assessed as decrease in ATP consumption at 10 uM after 60 mins by Kinase-Glo assay relative to control
Target sequence in this assay (P48736 whole entry, looked up, canonical isoform): as the sequence (P48736 whole entry, canonical isoform) above

Chain of cGMP-inhibited 3',5'-cyclic phosphodiesterase 3A (Homo sapiens) (Q14432 whole entry, canonical isoform): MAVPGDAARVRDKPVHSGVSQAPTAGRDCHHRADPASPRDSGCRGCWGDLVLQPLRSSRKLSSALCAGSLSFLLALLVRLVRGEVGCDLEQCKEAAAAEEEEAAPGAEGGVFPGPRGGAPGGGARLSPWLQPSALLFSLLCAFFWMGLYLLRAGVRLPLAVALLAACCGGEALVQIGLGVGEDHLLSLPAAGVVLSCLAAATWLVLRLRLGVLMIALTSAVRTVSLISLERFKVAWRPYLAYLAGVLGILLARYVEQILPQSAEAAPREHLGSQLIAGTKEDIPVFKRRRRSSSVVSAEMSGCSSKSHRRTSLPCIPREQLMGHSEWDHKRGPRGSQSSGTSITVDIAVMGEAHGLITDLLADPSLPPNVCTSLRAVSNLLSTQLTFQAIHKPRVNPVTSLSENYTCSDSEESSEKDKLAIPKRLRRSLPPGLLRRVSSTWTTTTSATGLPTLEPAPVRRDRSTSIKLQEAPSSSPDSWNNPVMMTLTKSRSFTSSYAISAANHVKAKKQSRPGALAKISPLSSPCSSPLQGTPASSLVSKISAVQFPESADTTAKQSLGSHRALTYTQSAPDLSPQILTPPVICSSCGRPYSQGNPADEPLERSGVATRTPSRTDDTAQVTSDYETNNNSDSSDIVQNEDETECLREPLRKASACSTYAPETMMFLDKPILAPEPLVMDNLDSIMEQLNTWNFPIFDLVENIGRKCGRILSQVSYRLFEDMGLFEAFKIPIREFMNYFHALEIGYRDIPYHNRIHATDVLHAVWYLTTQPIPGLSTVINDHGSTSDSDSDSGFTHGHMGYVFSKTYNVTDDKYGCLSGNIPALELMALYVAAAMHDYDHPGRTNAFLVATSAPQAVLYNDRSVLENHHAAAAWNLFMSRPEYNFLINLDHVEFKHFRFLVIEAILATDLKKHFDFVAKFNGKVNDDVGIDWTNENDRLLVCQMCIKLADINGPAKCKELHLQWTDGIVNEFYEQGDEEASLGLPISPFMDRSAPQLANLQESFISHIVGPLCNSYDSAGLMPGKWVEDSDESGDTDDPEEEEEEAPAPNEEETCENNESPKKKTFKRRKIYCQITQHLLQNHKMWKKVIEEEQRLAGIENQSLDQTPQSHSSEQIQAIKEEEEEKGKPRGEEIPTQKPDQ
T4 sequence (P42336 whole entry, canonical isoform): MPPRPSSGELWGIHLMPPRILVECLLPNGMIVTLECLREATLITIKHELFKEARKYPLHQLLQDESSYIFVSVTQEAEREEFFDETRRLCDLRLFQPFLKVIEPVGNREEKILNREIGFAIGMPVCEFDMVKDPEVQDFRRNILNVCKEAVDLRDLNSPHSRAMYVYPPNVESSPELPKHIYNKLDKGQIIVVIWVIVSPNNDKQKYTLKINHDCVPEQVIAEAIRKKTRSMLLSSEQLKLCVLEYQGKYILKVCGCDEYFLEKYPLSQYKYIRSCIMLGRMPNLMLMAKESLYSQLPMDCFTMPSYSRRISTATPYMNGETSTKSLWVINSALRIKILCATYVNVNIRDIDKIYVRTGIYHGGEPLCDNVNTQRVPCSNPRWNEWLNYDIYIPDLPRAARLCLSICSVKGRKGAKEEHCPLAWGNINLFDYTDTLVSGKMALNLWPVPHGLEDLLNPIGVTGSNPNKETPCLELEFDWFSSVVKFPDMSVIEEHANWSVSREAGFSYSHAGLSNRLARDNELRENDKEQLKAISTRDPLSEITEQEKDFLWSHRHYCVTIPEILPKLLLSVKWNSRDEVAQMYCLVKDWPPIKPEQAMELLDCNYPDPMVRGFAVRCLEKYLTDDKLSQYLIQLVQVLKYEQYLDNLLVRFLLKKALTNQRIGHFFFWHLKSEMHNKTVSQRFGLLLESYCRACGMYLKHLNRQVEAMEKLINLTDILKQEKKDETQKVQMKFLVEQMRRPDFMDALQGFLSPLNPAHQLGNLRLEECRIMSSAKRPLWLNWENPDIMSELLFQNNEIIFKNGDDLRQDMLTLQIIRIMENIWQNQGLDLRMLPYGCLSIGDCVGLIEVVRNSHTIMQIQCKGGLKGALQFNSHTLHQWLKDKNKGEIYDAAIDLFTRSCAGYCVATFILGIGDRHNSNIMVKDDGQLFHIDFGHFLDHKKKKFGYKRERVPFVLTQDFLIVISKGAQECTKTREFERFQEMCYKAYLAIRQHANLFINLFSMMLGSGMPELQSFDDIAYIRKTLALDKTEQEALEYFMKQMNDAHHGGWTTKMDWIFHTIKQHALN

| Compound | IC50 (DNA-PK/Ku70/Ku85) [µM] | IC50 [1] [µM] | inhibition [2] [%] | IC50 [3] [µM] | IC50 [4] [µM] | IC50 [5] [µM] | IC50 [6] [µM] | inhibition [7] [%] | inhibition [8] [%] | inhibition [9] [%] | inhibition [10] [%] | inhibition [11] [%] |
| --- | --- | --- | --- | --- | --- | --- | --- | --- | --- | --- | --- | --- |
| O=c1nc(N2CCOCC2)oc2c(-c3ccccc3)c3ccccc3cc12 | 78.1 | > 50 | 32 | > 50 | 7.7 | 43.8 | > 80 |  |  |  |  |  |
| O=c1nc(N2CCOCC2)oc2c1cc(-c1cccc3ccccc13)c1ccccc12 |  |  | 26 |  |  |  |  | 10 |  |  |  |  |
| O=c1nc(N2CCOCC2)oc2c1cc(-c1cccc3c1sc1ccccc13)c1ccccc12 |  |  | 30 |  |  |  | 5 | 0 | 0 | 11 | 23 | 12 |
| O=c1nc(N2CCOCC2)oc2c1cc(/C=C/c1ccccc1)c1ccccc12 |  |  | 18 |  |  |  |  | 5.9 |  |  |  |  |
| Nc1cccc(-c2cc3c(=O)nc(N4CCOCC4)oc3c3ccccc23)c1 |  |  | -3 |  |  |  |  |  |  |  |  |  |
| COc1ccc(-c2c3ccccc3cc3c(=O)nc(N4CCOCC4)oc23)cc1 | 11.9 | > 50 | 6 | > 50 | 5.6 | > 50 | > 80 |  |  |  |  |  |
| O=c1nc(N2CCOCC2)oc2c1cc(-c1ccc(Cl)cc1)c1ccccc12 |  |  | 1 |  |  |  |  | 11 |  |  |  |  |
| COc1ccc(-c2ccc3c(ccc4oc(N5CCOCC5)nc(=O)c43)c2)cc1 |  |  | 18 |  |  |  |  |  | 0 | 0 | 0 | -2 |
| O=c1nc(N2CCOCC2)oc2c1cc(-c1ccsc1)c1ccccc12 |  |  | 22 |  |  |  |  | 22 |  |  |  |  |
| O=c1nc(N2CCOCC2)oc2ccc3cc(-c4cccc5c4sc4ccccc45)ccc3c12 |  |  | 5 |  |  |  |  | 0 |  |  |  |  |
| O=c1nc(N2CCOCC2)oc2cc3ccccc3cc12 |  |  |  |  |  |  |  |  | -10 |  |  |  |
| NC(=O)c1ccc(-c2cc3c(=O)nc(N4CCOCC4)oc3c3ccccc23)cc1 |  |  | 7 |  |  |  |  | 10 |  |  |  |  |
| O=c1nc(N2CCOCC2)oc2ccc3cc(-c4cccc5c4oc4ccccc45)ccc3c12 |  |  | 12 |  |  |  |  | 0 |  |  |  |  |
| O=c1nc(N2CCOCC2)oc2c1cc(-c1ccccc1)c1ccccc12 |  |  | 15 |  |  |  | 3 | 22 | 3 | 10 | 35 | 34 |
| O=c1nc(N2CCOCC2)oc2ccc3cc(-c4ccccc4)ccc3c12 |  |  | 13 |  |  |  |  | 0 | -1 | -3 | -2 | 1 |
| O=c1nc(N2CCOCC2)oc2c(-c3ccc(Cl)cc3)c3ccccc3cc12 | > 100 |  | 24 |  |  |  | > 80 |  | 52 | 0 | 8 | 3 |
| COc1ccc(-c2cc3c(=O)nc(N4CCOCC4)oc3c3ccccc23)cc1 |  |  | 26 |  |  |  | 14 | 19 | 9 | 42 | 20 | 17 |
| O=c1nc(N2CCOCC2)oc2ccc3cc(-c4ccc(Cl)cc4)ccc3c12 |  |  | -4 |  |  |  |  | 8.1 | -1 | -1 | -5 | 0 |
| O=c1nc(N2CCOCC2)oc2c1cc(-c1ccc(CO)cc1)c1ccccc12 |  |  | 35 |  |  |  |  |  |  |  |  |  |
| O=c1nc(N2CCOCC2)oc2ccc3ccccc3c12 | 38.8 |  |  |  |  |  | > 80 |  | 8 | 23 | 4 | 2 |
| O=c1nc(N2CCOCC2)oc2c1cc(-c1cccc3c1oc1ccccc13)c1ccccc12 |  |  | 11 |  |  |  | 2 | 24 | 0 | 22 | 9 | 24 |
| O=c1nc(N2CCOCC2)oc2c1ccc1ccccc12 | 10 |  |  |  |  |  | > 80 |  | 12 | 15 | 22 | 4 |
| O=c1nc(N2CCOCC2)oc2c1cc(-c1cccs1)c1ccccc12 |  |  | 32 |  |  |  |  | 34 |  |  |  |  |
